Where two headings read alike, the source gives them in different places.
What was measured:
diamondback moth = test: Insecticidal test on diamondback moth; assay type: in vivo; settings: Plutella xylostella, 144 h
How it was run: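 Cabbage leaves were dipped in a wettable-powder dilution at 500 ppm active ingredient, air-dried and given 10 second-instar larvae per cup. Mortality was counted after 6 days at 25 °C, in a single series.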

two-spotted spider mites = test: Miticidal test on two-spotted spider mites (seedling dip); assay type: in vivo, Tetranvchus urticae; settings: Glycine max, 312 h, read-out: protective value
How it was run: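 Soybean seedlings carrying adult mites were dipped in wettable-powder dilution at 500 ppm active ingredient, air-dried, and held at 25° C for 13 days. Live mites were counted and a protective value calculated.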

brown rice planthopper = test: Insecticidal test on brown rice planthopper; assay type: in vivo; settings: 144 h
How it was run: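 Rice sprouts dipped in 500 ppm active ingredient (water-diluted wettable powder), then exposed to ten third-instar brown rice planthopper larvae. Held at 25° C. for 6 days; dead larvae counted for mortality, single series.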

cotton aphid [1] = test: Insecticidal test on cotton aphid (root zone irrigation); assay type: in vivo; settings: Aphis gossypii, in Cucumis sativus, 72 h
Experimental: A wettable powder prepared in accordance with Formulation Example 2 was diluted with water to a concentration of an active ingredient of 100 ppm. The root zone of cucumber seedlings which had been inoculated with larvae of cotton aphid was irrigated with 5 mL of the solution. The treated cucumber seedlings were placed in a thermostatic chamber at 25° C. for 3 days, and the live insects were counted for calculation of the mortality by Equation 2. The test was carried out by one series system.

cotton bollworm = test: Insecticidal test on cotton bollworm; assay type: in vivo; settings: Helicoverpa armigera, 144 h
Experimental: A wettable powder prepared in accordance with Formulation Example 2 was diluted with water to a concentration of an active ingredient of 500 ppm. Cabbage leaves were dipped in this solution and dried in air and then put in a plastic cup having a capacity of 60 mL. Five hatched larvae of cotton bollworm were released in the cup, and the cup was lidded and placed in a thermostatic chamber at 25° C. for 6 days, and the number of dead larvae were assessed for calculation of the mortality by Equation 2. The test was carried out by two series system.

cotton aphid [2] = test: Insecticidal test on cotton aphid (seedling dip); assay type: in vivo; settings: Aphis gossypii, in Cucumis sativus, 72 h
How it was run: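 Cucumber seedlings carrying cotton aphid larvae were dipped in a water-diluted wettable powder at 500 ppm active ingredient, then air-dried. After 3 days at 25° C. live insects were counted and mortality calculated; single series.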

[3] = system: southern root-knot nematodes; test: Nematicidal test on root-knot nematode; assay type: in vivo; settings: Meloidogyne incognita, 120 h
Experimental: A compound to be tested was dissolved in N,N-dimethylformamide containing 1 mass % of tween 20, and this solution was diluted with distilled water to a concentration of an active ingredient of 20 ppm. 0.5 mL of the solution was mixed with 0.5 mL of a suspension containing about 30 second-instar larvaes of southern root-knot nematodes, and the mixture was placed in a thermostatic chamber at 25° C. for 5 days. The number of dead nematodes and the number of live nematodes were assessed by a microscope for calculation of the mortality by Equation 3. The test was carried out by two series system.

[4] = 500 ppm active ingredient, soybean seedlings with imago mites dipped, 25° C., 13 days

CC(=O)Nc1cc(OCC(F)(F)C(F)(F)F)nn1-c1cc([S+]([O-])CC(F)(F)F)c(C)cc1F (stereo not shown) [1-18, 5-acetylamino-1-{2-fluoro-4-methyl-5-(2,2,2-trifluoroethylsulfinyl)phenyl}-3-(2,2,3,3,3-pentafluoropropoxy)pyrazole]
≥ 90%: mortality at 500 ppm (diamondback moth; in Brassica oleracea) | pest or weed control at 500 ppm (two-spotted spider mites; [4]) | mortality at 500 ppm (brown rice planthopper) | mortality at 100 ppm (cotton aphid [1]) | mortality at 500 ppm (cotton bollworm; in Brassica oleracea) | mortality at 500 ppm (cotton aphid [2])

C#CCNc1cc(OCC(F)(F)C(F)(F)F)nn1-c1cc([S+]([O-])CC(F)(F)F)c(C)cc1F (stereo not shown) [1-162, 1-{2-fluoro-4-methyl-5-(2,2,2-trifluoroethylsulfinyl)phenyl}-3-(2,2,3,3,3-pentafluoropropoxy)-5-(2-propynylamino)pyrazole]
≥ 90%: mortality at 500 ppm (diamondback moth; in Brassica oleracea) | pest or weed control at 500 ppm (two-spotted spider mites; [4]) | mortality at 20 ppm [3] | mortality at 500 ppm (cotton bollworm; in Brassica oleracea) | mortality at 500 ppm (cotton aphid [2])

Cc1cc(F)c(-n2nc(OCC(F)(F)C(F)(F)F)cc2C)cc1[S+]([O-])CC(F)(F)F (stereo not shown) [1-92, 1-{2-fluoro-4-methyl-5-(2,2,2-trifluoroethylsulfinyl)phenyl}-5-methyl-3-(2,2,3,3,3-pentafluoropropoxy)pyrazole]
≥ 90%: pest or weed control at 500 ppm (two-spotted spider mites; [4]) | mortality at 20 ppm [3] | mortality at 500 ppm (brown rice planthopper) | mortality at 500 ppm (cotton aphid [2])

CNc1cc(OC(F)(F)C(F)OC(F)(F)C(F)(F)C(F)(F)F)nn1-c1cc([S+]([O-])CC(F)(F)F)c(C)cc1F (stereo not shown) [1-348, 1-{2-fluoro-4-methyl-5-(2,2,2-trifluoroethylsulfinyl)phenyl}-5-methylamino-3-{1,1,2-trifluoro-2-(heptafluoropropoxy)ethoxy}pyrazole]
≥ 90%: mortality at 500 ppm (diamondback moth; 500 ppm active ingredient, cabbage leaves dipped, second-instar larvae, 25° C., 6 days, read-out: mortality) | pest or weed control at 500 ppm (two-spotted spider mites) | mortality at 20 ppm [3] | mortality at 500 ppm (cotton bollworm; 500 ppm active ingredient, cabbage leaves dipped, hatched larvae, 25° C., 6 days, read-out: mortality)

Reference: patent US8802713B2, “3-alkoxy-1-phenylpyrazole derivatives and pesticides” (Kumiai Chemical Industry Co., Ltd., priority 2007, dated 2014)
